The experiment has as its system human melanocytes of the SKMel type. Description: Depigmentation: melanin production by melanocytes in culture, melanin content by spectrophotometry. The settings on record: for Eff./Ref. to 5 μM (relative activity with respect to kojic acid at the same concentration): kojic acid = 1; for activity at 5 µM: SK-MEL3, 72 h, read-out: Resid. Pig. (%) (percentage of residual pigmentation); for residual pigmentation percentage: 100 μM. Format: cell-based. Here is the method: Various synthesized molecules were tested in order to determine their depigmenting power. The idea was to evaluate the effect of each of them on the production of melanin by melanocytes maintained in a culture medium.
For these tests, 2 lines of melanocytes were cultivated, human melanocytes of the SKMel type on the one hand and a murine line of the B16F10 type on the other hand. Here, we only show the results obtained on the human line.
The melanin content was determined by spectrophotometry, after 3 days of incubation in the presence of the molecule to be tested and cell lysis.
Kojic acid, a well-known depigmenting agent is used as a reference for making a hierarchy of the results.
For each measurement, the analyses were repeated. The indicated value corresponds to the calculated average. When the experiments are repeated, the average variation coefficient of the residual pigmentation percentage is of the order of 3% (comprised between 1.5% and 6% (for 3 tests).
This list is neither exhaustive nor limiting and the same type of results was obtained for the other molecules.

The mark [1] stands for this setting: 5 μM, human line SKMel, 3 days of incubation, melanin vs control culture (cells alone).

Like-named read-outs stand apart in the source and are kept apart here.

Consider `C1CCNCC1` [reference compound], for which the “Eff./Ref. to 5 μM (relative activity with respect to kojic acid at the same concentration)” value (5 μM, human line SKMel) is 17. Moreover, the activity at 5 µM under setting [1] is 50%.
On to `CS(=O)(=O)CCCCN=C=S`, for which, where the note is “5 μM, human line SKMel”, the “Eff./Ref. to 5 μM (relative activity with respect to kojic acid at the same concentration)” value was 15. The activity at 5 µM under setting [1] came out at 54%.
Consider `CC[S+]([O-])CCCCN=C=S` (stereo not shown), for which the “Eff./Ref. to 5 μM (relative activity with respect to kojic acid at the same concentration)” value (5 μM, human line SKMel) was found to be 12. Moreover, the activity at 5 µM (Homo sapiens) was 63%.
For the molecule `O=c1cc(CO)occ1O` [kojic acid, Kojic acid, reference compound], the “Eff./Ref. to 5 μM (relative activity with respect to kojic acid at the same concentration)” value (5 μM, human line SKMel) worked out at 1. Further, the residual pigmentation percentage (human line SKMel) was 73%. Besides, under setting [1], the activity at 5 µM was 97%.
As for `CC(=O)CCCCN=C=S`, where the note is “5 μM, human line SKMel”, the “Eff./Ref. to 5 μM (relative activity with respect to kojic acid at the same concentration)” value worked out at 5. Under setting [1], the activity at 5 µM is 84%.
With `C[S+]([O-])CCCCN=C=S` (stereo not shown), the “Eff./Ref. to 5 μM (relative activity with respect to kojic acid at the same concentration)” value (5 μM, human line SKMel) is 22. The activity at 5 µM under setting [1] amounted to 34%.
Regarding `C[S+]([O-])CCCCN` (stereo not shown) [reference compound], the “Eff./Ref. to 5 μM (relative activity with respect to kojic acid at the same concentration)” value (5 μM, human line SKMel) turned out to be 11. The activity at 5 µM under setting [1] was 67%.
The matching figures for `C1COCCN1` [reference compound]: 5 and 86%.
In the case of `C[S+]([O-])CCCCNC(=S)NCCCC[S+](C)[O-]` (stereo not shown) [Example 9, 1,3-bis-(4-(methylsulfinyl)butyl)-thiourea], where the note is “5 μM, human line SKMel”, the “Eff./Ref. to 5 μM (relative activity with respect to kojic acid at the same concentration)” value was 27. Moreover, the residual pigmentation percentage (human line SKMel) is 14%. Besides, the activity at 5 µM under setting [1] came to 20%.
As to `[O-][S+](CCCCN=C=S)c1ccccc1` (stereo not shown), the “Eff./Ref. to 5 μM (relative activity with respect to kojic acid at the same concentration)” value (5 μM, human line SKMel) amounted to 10. Further, the activity at 5 µM under setting [1] turned out to be 71%.

These data come from patent publication US20130142739A1, “PROCESS FOR THE SYNTHESIS OF ISOTHIOCYANATES AND DERIVATIVES THEREOF AND USES OF SAME” (Auriga International, priority 2010, published 2013).
